Reference: US20210139435A1, “PROSTAGLANDIN ANALOGS AND USES THEREOF” (Lifex Biolabs, Inc., priority 2019, published 2021)

Target: T1, mouse Nurr1 full-length (Mus musculus, UniProt Q06219)
T1 construct: pcDNA3.1 Myc/His mouse Nurr1 full-length construct; expressed in transfected cells; host or cells: SK-N-BE2C
Assay: Luciferase reporter gene assay for Nurr1 transcriptional activity in SK-N-BE2C cells
Format: cell-based
Conditions: relative activity over control (luminescence value; 1.0)
Procedure: To investigate whether the PG analogs of the present invention activate Nurr1 function, the inventors of the present invention employed an reporter gene assay and examined the transcriptional activation as described in Kim, C.-H. et al., Proceedings of the National Academy of Sciences 112, 8756-8761, doi:10.1073/pnas.1509742112 (2015).
The gene assay was performed by Luciferase assay as described below:
[Protocol for Luciferase Assay to Determine Nurr1 Transcriptional Activity] • 1. SK-N-BE2C cells were maintained in HyClone™ DMEM High Glucose (Cat. No.: SH30022.01) with 10% (v/v) fetal bovine serum (FBS), 100 units/ml penicillin and 100 μg/ml streptomycin. • 2. Seed 1.5×10^5 SK-N-BE2C cells/well into a 24-well plate and incubate at 37° C. with 5% CO2 for 24 hours. • 3. After 24 hours, transfect cells with pcDNA3.1 Myc/His mouse Nurr1 full-length construct, firefly luciferase reporter vector (pGL-3 basic from Promega, Cat. No.:E1751; with appropriate response element cloned in) and Renilla luciferase control vector (pRL-null from Promega, Cat. No.:E2271) in the ratio of 8:1:1 (Nurr1: firefly: renilla) or 400 ng, 50 ng and 50 ng respectively, amounting to a total of 500 ng in the 50 μl transfection mix for 1 well. • 4. To make the transfection mix, first prepare the DNA with P3000 reagent by adding the appropriate amount of DNA with 1 μl P3000 reagent and top up with Opti-MEM® I Reduced-Serum Media (from ThermoFisher Scientific [Cat. No.: 31985070]) to 25 μl. Incubate for 5 minutes at room temperature. • 5. Make another mix consisting of 1 μl Lipofectamine 3000 reagent with 24 μl Opti-MEM® I Reduced-Serum Media per well. Add this Lipofectamine mix to the previous DNA-P3000 mix (after the previous 5 minute incubation) and incubate them for 15 minutes at room temperature. [P3000:Lipofectamine=1:1]. • 6. In the meantime, change the media in the sample wells with fresh DMEM media without antibiotics. • 7. After 15 minutes incubation, add the 50 μl transfection mix into each well and incubate the plate for 24 hours at 37° C. with 5% CO2. • 8. After 24 hours, change the media to normal DMEM media with antibiotics and add various doses of compounds into designated wells and incubate the plate for another 24 hours at 37° C. with 5% CO2. • 9. Following the 24-hour incubation period, luciferase assay can be conducted using Dual-Glo Luciferase® kit from Promega (Cat. No.: E2920). • 10. Lyse each tested wells for 15 minutes with 75 μl of passive lysis buffer provided in the Dual-Luciferase® kit from Promega (Cat. No.: E1910). [Alternatively, add 75 μl of PBS and 75 μl of Dual-Glo® Luciferase Reagent and incubate for 10 minutes at room temperature (cover the plate with foil to protect from light). Transfer the entire sample in each well to a Greiner CELLSTAR® 96-well white polystyrene plate then proceed to step 13]. • 11. After 15 minutes, transfer each lysed sample to a Greiner CELLSTAR® 96-well white polystyrene plate (Cat. No.:655083). • 12. To each well of lysed cells, add 75 μl of Dual-Glo® Luciferase Reagent and incubate for 10 minutes at room temperature (cover the plate with foil to protect from light). • 13. Set the measurement with a 10-second integrated measurement period. • 14. Add 75 μl of Dual-Glo® Stop & Glo® reagent into each well and incubate for 10 minutes before commencing with the same parameters as before to determine the RLU for the Renilla luciferase. • 15. The averaged reading for wells corresponding to non-transfected cells can be subtracted from each RLU reading and duplicate/triplicate readings can then be averaged. Normalization of the luminescence reading for each well can be carried out by dividing the firefly luciferase RLU with the corresponding Renilla luciferase RLU. Each drug-treated well can then be normalized against the averaged DMSO-treated well reading.

T1 sequence (Q06219 whole entry): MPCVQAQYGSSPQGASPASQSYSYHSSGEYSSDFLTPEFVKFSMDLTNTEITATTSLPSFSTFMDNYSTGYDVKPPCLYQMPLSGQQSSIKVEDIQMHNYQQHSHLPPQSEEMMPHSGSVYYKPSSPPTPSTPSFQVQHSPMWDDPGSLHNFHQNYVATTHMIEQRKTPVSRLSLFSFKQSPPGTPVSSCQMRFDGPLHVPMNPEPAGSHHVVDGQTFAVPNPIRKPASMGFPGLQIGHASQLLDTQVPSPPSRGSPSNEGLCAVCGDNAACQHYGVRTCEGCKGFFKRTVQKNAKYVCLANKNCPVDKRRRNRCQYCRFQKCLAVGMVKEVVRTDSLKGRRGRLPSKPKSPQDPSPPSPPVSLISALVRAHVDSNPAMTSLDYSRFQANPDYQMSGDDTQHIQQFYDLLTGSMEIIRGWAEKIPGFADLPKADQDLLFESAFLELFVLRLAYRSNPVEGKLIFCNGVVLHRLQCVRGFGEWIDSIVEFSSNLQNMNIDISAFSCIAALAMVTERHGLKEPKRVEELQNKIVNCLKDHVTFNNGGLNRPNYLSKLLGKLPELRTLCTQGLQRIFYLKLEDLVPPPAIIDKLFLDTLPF

Row | SMILES | Fold activity (1 uM)
1 | CCCCC(C)(C)[C@H](O)/C=C/[C@H]1[C@H](O)CC(=O)[C@@H]1C/C=C\CCCC(=O)Oc1ccc(NC(=O)c2ccc(NC(C)=O)cc2)cc1 [Compound 77, 16,16-dimethyl Prostaglandin E2 p-(p-acetamidobenzamido) phenyl ester] | A (above 2.0 (high activity))
2 | O=C(O)CCC/C=C\C[C@H]1[C@@H](O)CC(=O)[C@@H]1/C=C/[C@@H](O)COc1cccc(C(F)(F)F)c1 [Compound 23, 11-keto Fluprostenol] | B (1.1~2.0 (moderate))
3 | CCCC1([C@H](O)C/C=C/[C@H]2[C@H](O)CC(=O)[C@@H]2CCCCCCC(=O)O)CCC1 [Compound 31, (R)-Butaprost (free acid)] | B (1.1~2.0 (moderate))
4 | CCCCC[C@H](O)/C=C/[C@H]1[C@H](O)CC(=O)[C@@H]1C/C=C\CCCC(=O)NCCCCCNC(=O)CCCC[C@H]1SC[C@@H]2NC(=O)N[C@@H]21 [Compound 39, Prostaglandin E2-biotin] | B (1.1~2.0 (moderate))
5 | CCCCC[C@H](O)/C=C/[C@H]1[C@H](O)CC(=O)[C@@H]1CCCCCCC(=O)Nc1ccc2cccnc2c1 [Compound 8, 7-((1R,2R,3R)-3-hydroxy-2-((S,E)-3-hydroxyoct-1-enyl)-5-oxocyclopentyl)-N-(quinolin-7-yl)heptanamide] | A (above 2.0 (high activity))
6 | O=C(O)CCC/C=C\C[C@H]1C(=O)C[C@@H](O)[C@@H]1/C=C/[C@@H](O)CCc1ccccc1 [Compound 38, 17-phenyl trinor Prostaglandin E2] | B (1.1~2.0 (moderate))
7 | CCCCC[C@H](O)/C=C/[C@H]1[C@H](O)CC(=O)[C@@H]1CCCCCCC(=O)NOc1ccccc1 [Compound 9, 7-((1R,2R,3R)-3-hydroxy-2-((S,E)-3-hydroxyoct-1-enyl)-5-oxocyclopentyl)-N-phenoxyheptanamide] | A (above 2.0 (high activity))
8 | CCCCC(C)(O)C/C=C/[C@H]1[C@H](O)CC(=O)[C@@H]1CCCCCCC(=O)OC (some centres unmarked) [Compound 75, Misoprostol] | A (above 2.0 (high activity))
9 | CCCC1([C@H](O)C/C=C/[C@H]2[C@H](O)CC(=O)[C@@H]2CCCCCCC(=O)OC)CCC1 [Compound 35, (R)-Butaprost] | B (1.1~2.0 (moderate))
10 | CNC(=O)CCC/C=C\C[C@@H]1[C@@H](/C=C/[C@@H](O)CCc2ccccc2)[C@H](O)C[C@@H]1O [Compound 80, 17-phenyl trinor PGF2a methyl amide] | C (below 1.0 (low activity))
11 | O=C(O)CCC/C=C\CC1C(=O)CC(O)C1/C=C/C(O)CC1CCCCC1 (centres unmarked) [Compound 71, 8-iso-16-cyclohexyl-tetranor Prostaglandin E2] | B (1.1~2.0 (moderate))
12 | CCCCC[C@H](O)/C=C/[C@H]1[C@H](O)CC(=O)[C@@H]1CCCCCCC(=O)Oc1cc(OC)c(OC)c(OC)c1 [Compound 14, 3,4,5-trimethoxyphenyl 7-((1R,2R,3R)-3-hydroxy-2-((S,E)-3-hydroxyoct-1-enyl)-5-oxocyclopentyl)heptanoate] | A (above 2.0 (high activity))
13 | CCCCC[C@H](O)/C=C/[C@H]1[C@H](O)CC(=O)[C@@H]1CCCCCCC(=O)NCCO [Compound 18, Prostaglandin E1 Ethanolamide] | A (above 2.0 (high activity))
14 | CCCCC[C@H](O)/C=C/[C@H]1[C@H](O)CC(=O)[C@@H]1C/C=C\CCCC(=O)Oc1ccc(NC(=O)c2ccccc2)cc1 [Compound 52, Prostaglandin E2 p-benzamidophenyl ester] | A (above 2.0 (high activity))
15 | CCCCC[C@H](O)/C=C/[C@H]1[C@H](O)CC(=O)[C@@H]1CCCCCCC(=O)Nc1cccc(C(=O)Nc2ccccc2)c1 [Compound 6, 3-(7-((1R,2R,3R)-3-hydroxy-2-((S,E)-3-hydroxyoct-1-enyl)-5-oxocyclopentyl)heptanamido)-N-phenylbenzamide] | B (1.1~2.0 (moderate))

Results, then the compound that gave them:

Row | Fold activity (1 uM) | SMILES
16 | A (above 2.0 (high activity)) | CCCCC[C@H](O)CC[C@H]1[C@H](O)CC(=O)[C@@H]1CCCCCCC(=O)O [Compound 58, 13,14-dihydro Prostaglandin E1]
17 | B (1.1~2.0 (moderate)) | CCCCC[C@@H](O)/C=C/[C@H]1[C@H](O)CC(=O)[C@@H]1C/C=C\CCCC(=O)O [Compound 37, 15(R)-Prostaglandin E2]
18 | A (above 2.0 (high activity)) | CCCCC[C@H](O)/C=C/[C@H]1[C@H](O)CC(=O)[C@H]1C/C=C\CCCC(=O)OC(C)C [Compound 76, 8-iso Prostaglandin E2 isopropyl ester]
19 | C (below 1.0 (low activity)) | CCCCC[C@H](O)/C=C/[C@H]1C(=O)C[C@H](O)[C@@H]1C/C=C\CCCC(=O)OC [Compound 55, Prostaglandin D2 methyl ester]
20 | B (1.1~2.0 (moderate)) | C=C1C[C@H](O)[C@H](C/C=C\CCCC(=O)O)[C@H]1/C=C/[C@@H](O)CCCCC [Compound 25, 11-deoxy-11-methylene Prostaglandin D2]
21 | A (above 2.0 (high activity)) | CCCCC[C@H](O)/C=C/[C@H]1[C@H](O)CC(=O)[C@@H]1C/C=C\CCCC(=O)O [Compound 20, Prostaglandin E2]
22 | C (below 1.0 (low activity)) | O=C(O)CCCCC(=O)CC[C@H]1[C@H](O)CC(=O)[C@@H]1CCC(=O)O [Compound 46, tetranor-PGEM]
23 | B (1.1~2.0 (moderate)) | CCCCCC(=O)CC[C@H]1[C@H](O)CC(=O)[C@@H]1C/C=C\CCCC(=O)O [Compound 29, 13,14-dihydro-15-keto Prostaglandin E2]
24 | A (above 2.0 (high activity)) | CCCCC[C@H](O)/C=C/[C@H]1[C@H](O)CC(=O)[C@H]1CCCCCCC(=O)O [Compound 50, 8-iso Prostaglandin E1]
25 | A (above 2.0 (high activity)) | CCCCC[C@H](O)/C=C/[C@H]1[C@H](O)CC(=O)[C@@H]1C/C=C\CCCC(=O)OCC(O)CO (some centres unmarked) [Compound 24, Prostaglandin E2-1-glyceryl ester]
26 | A (above 2.0 (high activity)) | CCCCC[C@H](O)/C=C/[C@H]1[C@H](O)CC(=O)[C@@H]1C/C=C\CCCC(=O)OC [Compound 28, Prostaglandin E2 methyl ester]
27 | B (1.1~2.0 (moderate)) | CCCCC[C@H](O)/C=C/[C@H]1[C@@H](O)CC(=O)[C@@H]1C/C=C\CCCC(=O)O [Compound 21, 11b-Prostaglandin E2]
28 | A (above 2.0 (high activity)) | C[C@@H](O)CCC[C@H](O)/C=C/[C@H]1[C@H](O)CC(=O)[C@@H]1C/C=C\CCCC(=O)O [Compound 54, 19(R)-hydroxy Prostaglandin E2]
29 | A (above 2.0 (high activity)) | CCCCC[C@H](O)/C=C/[C@H]1[C@H](O)CC(=O)[C@H]1C/C=C\CCCC(=O)O [Compound 68, 8-iso Prostaglandin E2]
30 | A (above 2.0 (high activity)) | CCCCC(C)(C)[C@@H](O)/C=C/[C@H]1[C@H](O)CC(=O)[C@@H]1CCCCCCC(=O)O [Compound 51, 16,16-dimethyl Prostaglandin E1]
31 | C (below 1.0 (low activity)) | CCCCC[C@H](O)/C=C/[C@H]1[C@H](O)CC(=O)[C@@H]1C/C=C\CCCC(=O)NC(CO)CO [Compound 40, Prostaglandin E2 serinol amide]
32 | A (above 2.0 (high activity)) | CC/C=C/C[C@H](O)/C=C/[C@H]1[C@H](O)CC(=O)[C@@H]1C/C=C\CCCC(=O)O (relative stereo) [Compound 78, 17-trans Prostaglandin E3]
